Results taken from US20130244999A1, “Substituted Heterocyclic Compounds” (Incyte Corporation, priority 2008, published 2013).

Target: T1, histamine H4 receptor (Homo sapiens, UniProt Q9H3N8)
T1 construct: expressed in transfected cells; host or cells: HEK293SFM cells (membrane preparation)
Assay: Inhibition of histamine H4 receptor (Table A1; H4 membrane binding assay)
Conditions: for IC50: histamine H4 receptor, "> a" = exceeds experiment limit
Description: Recombinant HEK293SFM cells expressing human H1, H2, H3, H4 or mouse H4 were harvested (Packard Filtermate Harvester) in ice-cold Tris-HCl, (50 mM, pH 7.5, Sigma) with protease inhibitors (Roche) and homogenized with a Polytron homogenizer. The homogenate was centrifuged for 5 minutes at 1000 g to remove nuclei and unbroken cells. The supernatant was centrifuged at 50000 g for 30 minutes, and the resulting pellet was re-suspended in ice-cold Tris-HCl (50 mM, pH 7.5). […] Nonspecific binding was determined by inclusion of 1000× unlabeled ligands. The bound radioactivity was separated by filtration through polyethyleneimine-treated GF/B filters (Perkin Elmer). The filters were washed eight times with ice-cold Tris-HCl (50 mM, pH 7.5), and radioactivity retained on the filters was measured by liquid scintillation counting. The binding data were evaluated with Prism. […]

Row | IC50 [nM] | inhibition at 1 µM [%] | Structure (SMILES)
1 | 66 | – | CC1Cc2ccc(-c3ccnc(C(=O)N[C@H](C)CO)c3)cc2CN1c1cc(N2CCN(C)CC2)nc(N)n1 (single isomer, unassigned) [Example 69]
2 | 173 | – | Cc1cc(-c2ccc3c(c2)CN(c2cc(N4CCN(C)CC4)nc(N)n2)CC3)cnc1C(=O)N(C)C [Example 46, 5-{2-[2-Amino-6-(4-methylpiperazin-1-yl)pyrimidin-4-yl]-1,2,3,4-tetrahydroisoquinolin-7-yl}-N,N,3-trimethylpyridine-2-carboxamide]
3 | 107 | – | CC1Cc2ccc(-c3ccnc(C(=O)N4CC[C@H](O)C4)c3)cc2CN1c1cc(N2CCN(C)CC2)nc(N)n1 (single isomer, unassigned) [Example 65A]
4 | 22 | – | CC1Cc2ccc(-c3cnn(C4CCN(CCO)CC4)c3)cc2CN1c1cc(N2CCN(C)CC2)nc(N)n1 (single isomer, unassigned) [Example 111, 2-[4-(4-{2-[2-Amino-6-(4-methylpiperazin-1-yl)pyrimidin-4-yl]-3-methyl-1,2,3,4-tetrahydroisoquinolin-7-yl}-1H-pyrazol-1-yl)piperidin-1-yl]ethanol]
5 | 24 | – | CC1Cc2ccc(-c3cnn(C4CCS(=O)(=O)C4)c3)cc2CN1c1cc(N2CCN(C)CC2)nc(N)n1 (single isomer, unassigned) [Example 98A, 4-[7-[1-(1,1-dioxidotetrahydro-3-thienyl)-1H-pyrazol-4-yl]-3-methyl-3,4-dihydroisoquinolin-2(1H)-yl]-6-(4-methylpiperazin-1-yl)pyrimidin-2-amine]
6 | 39 | – | CC1Cc2ccc(-c3ccc4c(c3)N(C)C(=O)CO4)cc2CN1c1cc(N2CCN(C)CC2)nc(N)n1 (stereo not shown) [Example 132, 6-{2-[2-Amino-6-(4-methylpiperazin-1-yl)pyrimidin-4-yl]-3-methyl-1,2,3,4-tetrahydroisoquinolin-7-yl}-4-methyl-2H-1,4-benzoxazin-3(4H)-one]
7 | 299 | – | CC(=O)N1CCN(c2ccc3c(c2)CN(c2cc(N4CCN(C)CC4)nc(N)n2)CC3)CC1 [Example 31, 4-[7-(4-Acetylpiperazin-1-yl)-3,4-dihydroisoquinolin-2 (1H)-yl]-6-(4-methylpiperazin-1-yl)pyrimidin-2-amine]
8 | 110 | – | CN1CCN(c2cc(N3CCc4ccc(-c5ccc(C(=O)NCC(C)(C)O)nc5)cc4C3)nc(N)n2)CC1 [Example 19, 5-{2-[2-Amino-6-(4-methylpiperazin-1-yl)pyrimidin-4-yl]-1,2,3,4-tetrahydroisoquinolin-7-yl}-N-(2-hydroxy-2-methylpropyl)pyridine-2-carboxamide]
9 | 83 | – | CC1Cc2ccc(-c3cnn(CC4CCCO4)c3)cc2CN1c1cc(N2CCN(C)CC2)nc(N)n1 (single isomer, unassigned) [Example 99A, 4-(4-Methylpiperazin-1-yl)-6-[3-methyl-7-[1-(tetrahydrofuran-2-ylmethyl)-1H-pyrazol-4-yl]-3,4-dihydroisoquinolin-2(1H)-yl]pyrimidin-2-amine]
10 | – | 65 | CC1Cc2ccc(-c3ccc(C(=O)N4CCCC4)nc3)cc2CN1c1cc(N2CCN(C)CC2)nc(N)n1 (single isomer, unassigned) [Example 55B, 4-(4-methylpiperazin-1-yl)-6-[3-methyl-7-[6-(pyrrolidin-1-ylcarbonyl)pyridin-3-yl]-3,4-dihydroisoquinolin-2(1H)-yl]pyrimidin-2-amine]
11 | 76 | – | CN1CCN(c2cc(N3CCc4ccc(-c5cnc(C#N)c(F)c5)cc4C3)nc(N)n2)CC1 [Example 7, 5-{2-[2-Amino-6-(4-methylpiperazin-1-yl)pyrimidin-4-yl]-1,2,3,4-tetrahydroisoquinolin-7-yl}-3-fluoropyridine-2-carbonitrile]
12 | 34 | – | CC(C#N)Cn1cc(-c2ccc3c(c2)CN(c2cc(N4CCN(C)CC4)nc(N)n2)C(C)C3)cn1 (single isomer, unassigned) [Example 101, 3-(4-{2-[2-Amino-6-(4-methylpiperazin-1-yl)pyrimidin-4-yl]-3-methyl-1,2,3,4-tetrahydroisoquinolin-7-yl}-1H-pyrazol-1-yl)-2-methylpropanenitrile]
13 | 31 | – | CC(=O)Nc1ccc(-c2ccc3c(c2)CN(c2cc(N4CCN(C)CC4)nc(N)n2)CC3)cn1 [Example 3, N-(5-{2-[2-Amino-6-(4-methylpiperazin-1-yl)pyrimidin-4-yl]-1,2,3,4-tetrahydroisoquinolin-7-yl}pyridin-2-yl)acetamide]
14 | 63 | – | CC1Cc2ccc(-c3cnn(CC4CCC4)c3)cc2CN1c1cc(N2CCN(C)CC2)nc(N)n1 (single isomer, unassigned) [Example 106, 4-[7-[1-(cyclobutylmethyl)-1H-pyrazol-4-yl]-3-methyl-3,4-dihydroisoquinolin-2(1H)-yl]-6-(4-methylpiperazin-1-yl)pyrimidin-2-amine]
15 | 30 | – | CC1Cc2ccc(-c3ccnc(C(=O)N(C)CCN(C)C)c3)cc2CN1c1cc(N2CCN(C)CC2)nc(N)n1 (single isomer, unassigned) [Example 68A, 4-{2-[2-amino-6-(4-methylpiperazin-1-yl)pyrimidin-4-yl]-3-methyl-1,2,3,4-tetrahydroisoquinolin-7-yl}-N-[2-(dimethylamino)ethyl]-N-methylpyridine-2-carboxamide]
16 | 269 | – | CC1Cc2ccc(-c3ccc(C(=O)N(C)C)cn3)cc2CN1c1cc(N2CCN(C)CC2)nc(N)n1 (single isomer, unassigned) [Example 72, 6-{2-[2-Amino-6-(4-methylpiperazin-1-yl)pyrimidin-4-yl]-3-methyl-1,2,3,4-tetrahydroisoquinolin-7-yl}-N,N-dimethylnicotinamide]
17 | 85 | – | CC1Cc2ccc(-c3ccc(C(=O)N4CC[C@H](F)C4)nc3)cc2CN1c1cc(N2CCN(C)CC2)nc(N)n1 (single isomer, unassigned) [Example 154A]
18 | 20 | – | CC1Cc2ccc(-c3ccn(C)n3)cc2CN1c1cc(N2CCN(C)CC2)nc(N)n1 (single isomer, unassigned) [Example 85A, 4-[3-Methyl-7-(1-methyl-1H-pyrazol-3-yl)-3,4-dihydroisoquinolin-2(1H)-yl]-6-(4-methylpiperazin-1-yl)pyrimidin-2-amine]
19 | 95 | – | CC1Cc2ccc(-c3ccc(C(=O)N4CCCC4)nc3)cc2CN1c1cc(N2CCN(C)CC2)nc(N)n1 (single isomer, unassigned) [Example 55A]
20 | 130 | – | CC1Cc2ccc(-c3ccc(C(=O)N4CC(O)C4)nc3)cc2CN1c1cc(N2CCN(C)CC2)nc(N)n1 (single isomer, unassigned) [Example 60, 1-[(5-{2-[2-Amino-6-(4-methylpiperazin-1-yl)pyrimidin-4-yl]-3-methyl-1,2,3,4-tetrahydroisoquinolin-7-yl}pyridin-2-yl)carbonyl]azetidin-3-ol]
21 | 35 | – | CN1CCN(c2cc(N3CCc4ccc(-c5cnn(C6CCNCC6)c5)cc4C3)nc(N)n2)CC1 [Example 13, 4-(4-Methylpiperazin-1-yl)-6-[7-(1-piperidin-4-yl-1H-pyrazol-4-yl)-3,4-dihydroisoquinolin-2 (1H)-yl]pyrimidin-2-amine]
22 | 84 | – | CC1Cc2ccc(C3=CCN(c4cc(C#N)ccn4)CC3)cc2CN1c1cc(N2CCN(C)CC2)nc(N)n1 (stereo not shown) [Example 137, 4-{2-[2-Amino-6-(4-methylpiperazin-1-yl)pyrimidin-4-yl]-3-methyl-1,2,3,4-tetrahydroisoquinolin-7-yl}-3,6-dihydro-2H-1,2′-bipyridine-4′-carbonitrile]
23 | 49 | – | CC1Cc2ccc(-c3ccnc(C(=O)N4CCC4)c3)cc2CN1c1cc(N2CCN(C)CC2)nc(N)n1 (single isomer, unassigned) [Example 62B, 4-[7-[2-(azetidin-1-ylcarbonyl)pyridin-4-yl]-3-methyl-3,4-dihydroisoquinolin-2(1H)-yl]-6-(4-methylpiperazin-1-yl)pyrimidin-2-amine]
24 | 112 | – | CC1Cc2ccc(-c3ccc4c(c3)CN(C3CC3)C4=O)cc2CN1c1cc(N2CCN(C)CC2)nc(N)n1 (stereo not shown) [Example 129, 5-{2-[2-Amino-6-(4-methylpiperazin-1-yl)pyrimidin-4-yl]-3-methyl-1,2,3,4-tetrahydroisoquinolin-7-yl}-2-cyclopropylisoindolin-1-one]
25 | 42 | – | CNC(=O)c1ccc(-c2ccc3c(c2)CN(c2cc(N4CCN(C)CC4)nc(N)n2)C(C)C3)cn1 (stereo not shown) [Example 49, 5-{2-[2-Amino-6-(4-methylpiperazin-1-yl)pyrimidin-4-yl]-3-methyl-1,2,3,4-tetrahydroisoquinolin-7-yl}-N-methylpyridine-2-carboxamide]
26 | 42 | – | CC1Cc2ccc(-c3cnn(CC4CC4)c3)cc2CN1c1cc(N2CCN(C)CC2)nc(N)n1 (single isomer, unassigned) [Example 102, 4-[7-[1-(Cyclopropylmethyl)-1H-pyrazol-4-yl]-3-methyl-3,4-dihydroisoquinolin-2(1H)-yl]-6-(4-methylpiperazin-1-yl)pyrimidin-2-amine]
27 | – | 78 | CC1Cc2ccc(-c3ccc(C(=O)N(C)C)nc3)cc2CN1c1cc(N2CCN(C)CC2)nc(N)n1 (single isomer, unassigned) [Example 50 B, 5-(2-(2-amino-6-(4-methylpiperazin-1-yl)pyrimidin-4-yl)-3-methyl-1,2,3,4-tetrahydroisoquinolin-7-yl)-N,N-dimetitylpicolinamide]
28 | – | 74 | CCNC(=O)c1cc(-c2ccc3c(c2)CN(c2cc(N4CCN(C)CC4)nc(N)n2)C(C)C3)cn1C (single isomer, unassigned) [Example 88B, 4-{2-[2-Amino-6-(4-methylpiperazin-1-yl)pyrimidin-4-yl]-3-methyl-1,2,3,4-tetrahydroisoquinolin-7-yl}-N-ethyl-1-methyl-1H-pyrrole-2-carboxamide]
